Experiment [1] deals with T1, Serine/threonine-protein kinase pim-1 (Homo sapiens, UniProt P11309). Briefly: Inhibition of Pim-1 in human NCE-G 55T2 cells assessed as reduction in p21 phosphorylation at Thr145 residue at 0.3 mM incubated for 24 hrs by Western blot analysis. The class given is cell-based. Background: In western blotting, separated proteins are transferred to a membrane and probed.

In experiment [2] the target is T1, Serine/threonine-protein kinase pim-1. The experiment in a line: Inhibition of Pim-1 activity (unknown origin) by Eurofins radiometric assay.
Experiment [3] has the same target. Briefly: Inhibition of Pim-1 activity (unknown origin) assessed as residual activity at 100 uM by Eurofins radiometric assay relative to control.
For experiment [4] the target is unchanged. Briefly: Inhibition of Pim-1 activity (unknown origin) at 100 uM by Eurofins radiometric assay.
For experiment [5], the system named is HCT-116. The experiment in a line: Cytotoxicity against human HCT-116 cells assessed as inhibition of cell growth incubated for 3 days by WST-8 assay. The following applies: HCT-116, 72 h. A general note: Formazan colour is commonly taken as a measure of viable cells.
A short description of experiment [6]: Cytotoxicity against human NCE-G 55T2 cells assessed as inhibition of cell growth incubated for 3 days by WST-8 assay. The following applies: NCE-G 55T2, 72 h.

What is called IC50 is the concentration that gives 50% inhibition.

SMILES strings stand for the structures. Active and inactive are the calls of the source. No cut-off for these calls is given here.

Turning to `Nc1ccc2c(c1)NC(=O)/C2=C/c1ccc(C(=O)O)cc1`, the inhibition result in experiment [1] is “Active”. The same molecule registered an IC50 in experiment [2] of 0.6 µM. Regarding `O=C(O)c1ccc(Cc2coc3cc(O)ccc23)cc1`, the Activity in experiment [3] was under 50%. This molecule also showed an IC50 in experiment [2] of 26.4 µM. For `COC(=O)c1ccc(/C=C2/C(=O)Nc3cc(N)ccc32)cc1`, the inhibition entry in experiment [4] is “Active”. Turning to `Cc1cc(O)cc2occ(Cc3ccc(C(=O)O)cc3)c12`, the Activity in experiment [3] is under 50%. Regarding `O=C1Nc2ccccc2/C1=C\c1ccc(C(=O)O)cc1`, the figures for the IC50 in experiment [5] and in experiment [6] were 200 µM and 100 µM, respectively. Consider `Nc1ccc2c(c1)NC(=O)C2Cc1ccc(C(=O)O)cc1` (centres undefined), for which the inhibition entry in experiment [4] is “Active”.

The record behind these values is ChEMBL document CHEMBL5385864, “Pose, duplicate, then elaborate: Steps towards increased affinity for inhibitors targeting the specificity surface of the Pim-1 kinase” (Eur J Med Chem, 2023).
